{"source": "ChEMBL document CHEMBL1133758", "about": "“Docking-based development of purine-like inhibitors of cyclin-dependent kinase-2” (J Med Chem, 2000)", "key": {"[1]": {"target": "Cyclin-dependent kinase 1 (Homo sapiens, UniProt P06493)", "sequence (P06493 whole entry)": "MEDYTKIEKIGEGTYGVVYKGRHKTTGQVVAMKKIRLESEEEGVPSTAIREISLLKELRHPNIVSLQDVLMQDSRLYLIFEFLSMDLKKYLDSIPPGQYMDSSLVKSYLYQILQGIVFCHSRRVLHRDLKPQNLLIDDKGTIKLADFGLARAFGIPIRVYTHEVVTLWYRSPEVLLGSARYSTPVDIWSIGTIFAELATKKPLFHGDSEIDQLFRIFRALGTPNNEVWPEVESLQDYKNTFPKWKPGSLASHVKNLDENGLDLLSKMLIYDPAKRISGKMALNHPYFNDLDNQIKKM", "assay": "Inhibition of Cyclin-dependent kinase 1"}, "[2]": {"target": "Cyclin-dependent kinase 2 (Homo sapiens, UniProt P24941)", "assay": "Inhibition of Cyclin-dependent kinase 2"}}}
{"smiles": "CC(C)n1cnc2c(NC3CCCC3)nc(NCCCO)nc21", "values": [{"measurement": "IC50", "setting": "[1]", "result": 2400, "unit": "nM"}, {"measurement": "IC50", "setting": "[2]", "result": 900, "unit": "nM"}]}
{"smiles": "CC(C)n1cnc2c(NC34CC5CC(CC(C5)C3)C4)nc(NCCCO)nc21", "values": [{"measurement": "IC50", "setting": "[1]", "result": "> 100000", "unit": "nM"}, {"measurement": "IC50", "setting": "[2]", "result": "> 100000", "unit": "nM"}]}
{"smiles": "CC(C)n1cnc2c(N)nc(NCCCO)nc21", "values": [{"measurement": "IC50", "setting": "[1]", "result": 10000, "unit": "nM"}, {"measurement": "IC50", "setting": "[2]", "result": 2400, "unit": "nM"}]}
{"smiles": "CC(C)n1cnc2c(NCc3ccccc3)nc(NC[C@@H](C)O)nc21", "values": [{"measurement": "IC50", "setting": "[2]", "result": 200, "unit": "nM"}]}
{"smiles": "CC(C)C(CO)Nc1nc(NCc2cccc(O)c2)c2ncn(C(C)C)c2n1", "note": "(stereo unspecified)", "values": [{"measurement": "IC50", "setting": "[2]", "result": 30, "unit": "nM"}]}
{"smiles": "CC(C)n1cnc2c(NCc3ccccc3)ncnc21", "values": [{"measurement": "IC50", "setting": "[1]", "result": 3500, "unit": "nM"}, {"measurement": "IC50", "setting": "[2]", "result": 4500, "unit": "nM"}]}
{"smiles": "CC(C)n1cnc2c(NCc3ccccc3)nc(NCCCO)nc21", "note": "[BOHEMINE]", "values": [{"measurement": "IC50", "setting": "[2]", "result": 800, "unit": "nM"}]}
